Results on 14 molecules are retold here after patent US9187471B2, “Pyrido [4,3-b] indole and pyrido [3,4-b] indole derivatives and methods of use” (Medivation Technologies, Inc., priority 2010, dated 2015).

For experiment [1], the target named is T1, human recombinant serotonin (5-Hydroxytryptamine) 5-HT6 receptor (Homo sapiens, UniProt P50406).
T1 construct: expressed in transfected cells; host or cells: HeLa
The experiment is described as follows: Serotonin 5-HT6 radioligand binding ([3H]LSD). The note with it: compound at 0.1 μM; read-out: Inhibition of ligand binding, Serotonin 5-HT6 (percent inhibition of specific binding). An excerpt:
Receptor proteins were filtered and washed, the filters were then counted to determine [3H]LSD specifically bound.

Experiment [2] deals with T2, human recombinant serotonin (5-Hydroxytryptamine) 5-HT2A receptor (Homo sapiens, UniProt P28223).
T2 construct: expressed in transfected cells; host or cells: CHO-K1
T2 sequence (P28223 whole entry): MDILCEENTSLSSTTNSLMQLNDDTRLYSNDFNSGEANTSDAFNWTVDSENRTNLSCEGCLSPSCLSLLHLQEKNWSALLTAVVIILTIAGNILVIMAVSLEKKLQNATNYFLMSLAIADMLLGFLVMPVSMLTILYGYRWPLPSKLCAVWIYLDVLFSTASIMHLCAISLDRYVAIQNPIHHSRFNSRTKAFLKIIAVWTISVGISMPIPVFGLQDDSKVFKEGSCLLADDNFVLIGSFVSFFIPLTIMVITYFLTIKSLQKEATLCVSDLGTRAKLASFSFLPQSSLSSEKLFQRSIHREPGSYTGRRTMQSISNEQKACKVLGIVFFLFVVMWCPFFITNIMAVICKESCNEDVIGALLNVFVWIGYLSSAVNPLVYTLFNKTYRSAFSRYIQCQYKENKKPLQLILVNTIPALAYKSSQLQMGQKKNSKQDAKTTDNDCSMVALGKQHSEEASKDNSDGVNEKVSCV
The experiment is described as follows: Serotonin 5-HT2A radioligand binding ([3H]Ketanserin). The note with it: compound at 0.1 μM; read-out: Inhibition of ligand binding, Serotonin 5-HT2A (percent inhibition of specific binding). The procedure:
Compounds of the invention were incubated with 0.5 nM [^3H]Ketanserin for 60 min at 25° C. Non-specific binding was estimated in the presence of 1 μM Mianserin. Receptor proteins were filtered and washed, the filters were then counted to determine [^3H]Ketanserin specifically bound.

Experiment [3] has as its target T3, human recombinant serotonin (5-Hydroxytryptamine) 5-HT2C receptor (Homo sapiens, UniProt P28335).
T3 construct: expressed in transfected cells; host or cells: CHO-K1
T3 sequence (P28335 33-458): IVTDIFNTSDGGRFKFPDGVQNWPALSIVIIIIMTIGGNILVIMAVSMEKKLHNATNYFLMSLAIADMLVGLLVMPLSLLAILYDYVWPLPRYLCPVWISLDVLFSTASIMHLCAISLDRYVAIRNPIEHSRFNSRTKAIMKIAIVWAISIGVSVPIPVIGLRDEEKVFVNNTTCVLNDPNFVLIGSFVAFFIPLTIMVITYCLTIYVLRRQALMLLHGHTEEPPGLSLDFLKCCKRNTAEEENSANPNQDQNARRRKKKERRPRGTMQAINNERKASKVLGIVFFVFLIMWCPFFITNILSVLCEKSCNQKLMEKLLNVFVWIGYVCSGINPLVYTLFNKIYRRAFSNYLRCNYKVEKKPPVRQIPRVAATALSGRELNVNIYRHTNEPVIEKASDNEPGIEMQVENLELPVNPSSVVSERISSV
The experiment is described as follows: Serotonin 5-HT2C radioligand binding ([3H]Mesulergine). The note with it: compound at 0.1 μM; read-out: Inhibition of ligand binding, Serotonin 5-HT2C (percent inhibition of specific binding). The procedure: Compounds of the invention were incubated with 1 nM [^3H]Mesulergine for 60 min at 25° C. Non-specific binding was estimated in the presence of 1 μM Mianserin. Receptor proteins were filtered and washed, the filters were then counted to determine [^3H]Mesulergine specifically bound.

For experiment [4], the target named is T4, rat adrenergic α1A receptor (Rattus norvegicus, UniProt P43140).
T4 construct: rat adrenergic α1A receptor obtained from Wistar Rat submaxillary glands; from tissue; host or cells: Wistar rat submaxillary glands
T4 sequence (P43140 1-466): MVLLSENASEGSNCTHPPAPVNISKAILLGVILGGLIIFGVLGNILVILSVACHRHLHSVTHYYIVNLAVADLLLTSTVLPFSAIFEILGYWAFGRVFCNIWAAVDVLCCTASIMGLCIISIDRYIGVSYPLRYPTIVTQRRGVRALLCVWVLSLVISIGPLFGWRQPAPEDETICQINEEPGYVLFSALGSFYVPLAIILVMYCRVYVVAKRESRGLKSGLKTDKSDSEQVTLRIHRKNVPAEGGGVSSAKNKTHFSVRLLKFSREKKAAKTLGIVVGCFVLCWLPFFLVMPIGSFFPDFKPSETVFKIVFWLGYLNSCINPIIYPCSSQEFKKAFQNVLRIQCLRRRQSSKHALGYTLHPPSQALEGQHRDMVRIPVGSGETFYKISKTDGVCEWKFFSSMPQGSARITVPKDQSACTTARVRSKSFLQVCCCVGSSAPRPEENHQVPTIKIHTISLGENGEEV
In words: Adrenergic α1A radioligand binding ([3H]Prazosin). The note with it: read-out: Adrenergic (0.1 μM) a1A, percent inhibition of specific binding; compound at 0.1 μM; 0.25 nM [3H]Prazosin. The procedure: To evaluate in radioligand binding assays the activity of compounds of the invention, rat adrenergic α1A receptor obtained from Wistar Rat submaxillary glands (Michel, A. et al, Br. J. Pharmacol. 98:883, 1989) in a modified Tris-HCl buffer (50 mM Tris-HCl buffer, pH 7.4, 0.5 mM EDTA) was used. Compounds of the invention were incubated with 0.25 nM [^3H]Prazosin for 60 min at 25° C. Non-specific binding was estimated in the presence of 10 μM phentolamine Receptor proteins were filtered and washed, the filters were then counted to determine [^3H]Prazosin specifically bound. […] Compounds of the invention were tested in this biochemical assay and percent inhibition of specific binding was determined.

In experiment [5] the target is T5, human recombinant serotonin (5-Hydroxytryptamine) 5-HT5A receptor (Homo sapiens, UniProt P47898).
T5 construct: expressed in transfected cells; host or cells: CHO-K1
T5 sequence (P47898 whole entry): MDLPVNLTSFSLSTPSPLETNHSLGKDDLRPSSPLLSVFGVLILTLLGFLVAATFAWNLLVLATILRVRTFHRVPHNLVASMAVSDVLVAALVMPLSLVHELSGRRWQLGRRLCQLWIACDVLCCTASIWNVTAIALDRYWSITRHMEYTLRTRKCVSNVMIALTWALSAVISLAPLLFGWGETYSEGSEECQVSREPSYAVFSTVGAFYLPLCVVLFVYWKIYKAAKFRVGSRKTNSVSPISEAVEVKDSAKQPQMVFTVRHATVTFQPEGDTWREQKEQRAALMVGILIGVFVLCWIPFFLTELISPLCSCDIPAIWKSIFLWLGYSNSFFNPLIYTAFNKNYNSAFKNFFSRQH
In words: Serotonin 5-HT5A radioligand binding ([3H]LSD). The note with it: compound at 0.1 μM; read-out: Inhibition of ligand binding, Serotonin 5-HT5A (percent inhibition of specific binding). The protocol:
Compounds of the invention were incubated with 1.7 nM [^3H]Lysergic acid diethylamide (LSD) for 60 min at 37° C. […] Receptor proteins were filtered and washed, the filters were counted to determine [^3H]LSD specifically bound.

The target of experiment [6] is T6, human recombinant histamine H1 receptor (Homo sapiens, UniProt P35367).
T6 construct: expressed in transfected cells; host or cells: CHO-K1
T6 sequence (P35367 whole entry): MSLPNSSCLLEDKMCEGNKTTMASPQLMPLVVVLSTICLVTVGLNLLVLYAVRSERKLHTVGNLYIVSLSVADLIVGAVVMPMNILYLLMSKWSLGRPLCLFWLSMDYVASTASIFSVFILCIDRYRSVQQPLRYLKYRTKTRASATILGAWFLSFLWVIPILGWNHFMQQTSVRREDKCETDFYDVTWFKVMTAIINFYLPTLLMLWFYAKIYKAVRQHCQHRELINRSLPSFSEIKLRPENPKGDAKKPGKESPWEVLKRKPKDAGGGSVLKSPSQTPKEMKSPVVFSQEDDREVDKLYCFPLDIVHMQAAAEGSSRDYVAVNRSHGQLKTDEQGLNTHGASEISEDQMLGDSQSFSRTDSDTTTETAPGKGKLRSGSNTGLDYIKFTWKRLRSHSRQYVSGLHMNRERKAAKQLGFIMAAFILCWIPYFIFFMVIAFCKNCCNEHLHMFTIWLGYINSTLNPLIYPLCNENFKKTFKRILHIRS
In words: Histamine H1 radioligand binding ([3H]Pyrilamine). The note with it: read-out: Histamine H1 Binding (1 μM), percent inhibition of specific binding; compound at 1 μM; 1.2 nM [3H]Pyrilamine. The essentials:
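Results expressed as percent inhibition of specific [3H]pyrilamine binding, counted on filters after washing. Receptor source: CHO-K1 cells expressing recombinant human H1, in modified Tris-HCl buffer (50 mM, pH 7.4; 2 mM MgCl2, 100 mM NaCl, 250 mM sucrose). 1 μM pyrilamine defined non-specific binding.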

T1 sequence (P50406 whole entry): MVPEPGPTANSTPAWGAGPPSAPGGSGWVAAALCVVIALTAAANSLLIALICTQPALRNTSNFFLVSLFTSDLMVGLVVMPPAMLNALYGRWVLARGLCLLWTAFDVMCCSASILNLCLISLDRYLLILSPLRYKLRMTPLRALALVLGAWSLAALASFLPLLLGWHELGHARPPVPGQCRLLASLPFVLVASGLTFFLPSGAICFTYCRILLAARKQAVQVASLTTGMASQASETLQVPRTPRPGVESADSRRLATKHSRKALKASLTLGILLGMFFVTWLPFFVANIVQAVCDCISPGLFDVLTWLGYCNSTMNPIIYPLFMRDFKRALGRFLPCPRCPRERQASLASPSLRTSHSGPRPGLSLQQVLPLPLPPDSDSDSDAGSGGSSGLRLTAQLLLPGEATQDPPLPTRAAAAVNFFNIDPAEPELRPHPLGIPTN

As a reminder, the inhibition is the drop in the measured response relative to a control, in per cent. With `Cc1ccc2c(c1)c1c(n2-c2cccc(-c3cccn3C)c2)CCN(C)C1` [Compound No. 69, 2,8-dimethyl-5-(3-(1-methyl-1H-pyrrol-2-yl)phenyl)-2,3,4,5-tetrahydro-1H-pyrido[4,3-b]indole], the inhibition at 0.1 µM in experiment [1] was determined as 21%; in experiment [2], 99%; in experiment [3], 79%; in experiment [4] it was 8%; in experiment [5] it was 36%. Moreover, in experiment [6], the inhibition at 1 µM worked out at 42%.

Turning to `CC(=O)Nc1ccc(-c2cscc2-n2c3c(c4cc(C)ccc42)CN(C)CC3)cn1` [Compound 56], the inhibition at 0.1 µM in experiment [1] is 16%; in experiment [2], 31%; in experiment [3] it was 38%; in experiment [4], 49%; in experiment [5], 51%. The inhibition at 1 µM in experiment [6] came out at 10%.

`Cc1ccc2c(c1)c1c(n2-c2cccc(-c3c(C)noc3C)c2)CCN(C)C1` [Compound No. 65, 4-(3-(2,8-dimethyl-3,4-dihydro-1H-pyrido[4,3-b]indol-5(2H)-yl)phenyl)-3,5-dimethylisoxazole]: the inhibition at 0.1 µM is 38% in experiment [1]; 85% in experiment [2]; 57% in experiment [3]; 1% in experiment [4]; 63% in experiment [5]. In experiment [6], the inhibition at 1 µM is 31%.

As to `Cc1ccc2c(c1)c1c(n2-c2ccc(-c3cncc4ccccc34)cn2)CCN(C)C1` [Compound No. 135, 5-(5-(isoquinolin-4-yl)pyridin-2-yl)-2,8-dimethyl-2,3,4,5-tetrahydro-1H-pyrido[4,3-b]indole], the inhibition at 0.1 µM in experiment [1] was determined as 6%; in experiment [2] it was 72%; in experiment [3], 88%; in experiment [4], 36%; in experiment [5] it was 77%. The inhibition at 1 µM in experiment [6] was 10%.

With `Cc1ccc2c(c1)c1c(n2-c2ccc(-c3ccnn3C)cn2)CCN(C)C1` [Compound No. 146, 2,8-dimethyl-5-(5-(1-methyl-1H-pyrazol-5-yl)pyridin-2-yl)-2,3,4,5-tetrahydro-1H-pyrido[4,3-b]indole], the inhibition at 0.1 µM in experiment [1] was -17%; in experiment [2] it was 57%; in experiment [3] it was 30%; in experiment [4] it was 33%; in experiment [5] it was 10%. Further, in experiment [6], the inhibition at 1 µM was found to be 8%.

Regarding `Cc1ccc2c(c1)c1c(n2-c2cccc(-c3cc4ccccc4s3)c2)CCN(C)C1` [Compound 51, 5-(3-(benzo[b]thiophen-2-yl)phenyl)-2,8-dimethyl-2,3,4,5-tetrahydro-1H-pyrido[4,3-b]indole], the inhibition at 0.1 µM in experiment [1] is 15%; in experiment [2] it was 86%; in experiment [3] it was 55%; in experiment [4], -6%; in experiment [5], 5%. Also, in experiment [6], the inhibition at 1 µM was determined as 36%.

For the molecule `Cc1ccc2c(c1)c1c(n2-c2cscc2-c2ccc(C)s2)CCN(C)C1` [Compound No. 79], the inhibition at 0.1 µM in experiment [1] worked out at 50%; in experiment [2], 77%; in experiment [3], 92%; in experiment [4], 79%; in experiment [5] it was 93%. Further, the inhibition at 1 µM in experiment [6] came to 61%.

Regarding `Cc1ccc2c(c1)c1c(n2-c2ccc3cnccc3c2)CCN(C)C1` [Compound 38], the inhibition at 0.1 µM turned out to be 73% in experiment [1]; 84% in experiment [2]; 88% in experiment [3]; 36% in experiment [4]; 29% in experiment [5]. In addition, in experiment [6], the inhibition at 1 µM is -4%.

Turning to `CNC(=O)c1ccc(-c2ccccc2-n2c3c(c4cc(C)ccc42)CN(C)CC3)cn1` [Compound No. 71, 5-(2-(2,8-dimethyl-3,4-dihydro-1H-pyrido[4,3-b]indol-5(2H)-yl)phenyl)-N-methylpicolinamide], the inhibition at 0.1 µM is -7% in experiment [1]; 1% in experiment [2]; 15% in experiment [3]; 65% in experiment [4]; 29% in experiment [5]. Further, the inhibition at 1 µM in experiment [6] worked out at 18%.

`Cc1csc(-c2cccc(-n3c4c(c5cc(C)ccc53)CN(C)CC4)c2)c1` [Compound No. 63, 2,8-dimethyl-5-(3-(4-methylthiophen-2-yl)phenyl)-2,3,4,5-tetrahydro-1H-pyrido[4,3-b]indole]: the inhibition at 0.1 µM in experiment [1] is 5%; in experiment [2] it was 101%; in experiment [3], 77%; in experiment [4], -8%; in experiment [5], 25%. In addition, the inhibition at 1 µM in experiment [6] is 31%.

For the molecule `Cc1cc(C)c2c(c1)c1c(n2-c2cccc3ncccc23)CCN(C)C1` [Compound 47], the inhibition at 0.1 µM in experiment [1] is 18%; in experiment [2], 1%; in experiment [3] it was 32%; in experiment [4], -1%; in experiment [5] it was 29%. Moreover, the inhibition at 1 µM in experiment [6] was determined as 42%.

Regarding `Cc1csc(-c2cscc2-n2c3c(c4cc(C)ccc42)CN(C)CC3)c1` [Compound 50], the inhibition at 0.1 µM worked out at 36% in experiment [1]; 86% in experiment [2]; 92% in experiment [3]; 65% in experiment [4]; 81% in experiment [5]. The inhibition at 1 µM in experiment [6] is 54%.

Take `Cc1ccc2c(c1)c1c(n2-c2cscc2-c2sccc2C)CCN(C)C1` [Compound 39]: the inhibition at 0.1 µM in experiment [1] is 65%; in experiment [2], 84%; in experiment [3], 93%; in experiment [4], 31%; in experiment [5], 83%. In addition, in experiment [6], the inhibition at 1 µM stood at 58%.

Consider `CNC(=O)c1ccc(-c2cccc(-n3c4c(c5cc(C)ccc53)CN(C)CC4)c2)cn1` [Compound No. 75, 5-(3-(2,8-dimethyl-3,4-dihydro-1H-pyrido[4,3-b]indol-5(2H)-yl)phenyl)-N-methylpicolinamide], for which the inhibition at 0.1 µM in experiment [1] amounted to 4%; in experiment [2], 55%; in experiment [3], 25%; in experiment [4], 21%; in experiment [5], 29%. In experiment [6], the inhibition at 1 µM amounted to 19%.
